This is an account of results in article PMC6482412, “Studies on spiro[4.5]decanone prolyl hydroxylase domain inhibitors” (MedChemComm, 2019).

By IC50 is commonly meant the point on the concentration scale where inhibition reaches its midpoint.

Format in all cases: biochemical
Assay [1] concerns the target T1, tPHD2 (PHD2 181-426) with HIF-1α CODD (Homo sapiens, UniProt Q9GZT9).
T1 construct: catalytic domain of truncated PHD2 (tPHD2, residues 181–426); His6 (N, cleaved yes); made in house; host or cells: E. coli BL21 DE3
The assay is described as follows: RapidFire-MS PHD2 hydroxylation assay, HIF-1α CODD peptide substrate. The conditions noted are these: for tPHD2 inhibition (in words): tPHD2, HIF-1α CODD substrate. As to the method: (§1) 11–16 were then assayed using mass spectrometry (MS) for inhibition of the catalytic domain of truncated PHD2 (tPHD2, residues 181–426) and (in selected cases) PHD3, employing either human HIF-1α CODD or NODD peptide sequences (Table 1).
(§2) Supplementary Information
(§3) RapidFire-MS PHD2 hydroxylation assays
(§4) Inhibition of PHD2 enzyme activity was assessed by mass spectrometry. The enzyme assay monitors tPHD2181-426 catalysed turnover of a C-terminal oxygenase […]
(§5) C-terminal amide) and appearance of the hydroxylated peptide product
(§6) (hydroxylation of proline 564) with a typical incubation time of 15 minutes.2 Assays were performed in 50 mM Tris.Cl pH 7.8, 50 mM NaCl, titrations of compounds for […]
(§7) ECHO 550 acoustic dispenser (Labcyte) and dry dispensed into 384-well polypropylene assay plates. The final assay concentration of DMSO was kept constant at 0.5% (v/v). tPHD2181-426 was at a concentration of 300 nM in the assay buffer (20 μM ferrous iron sulfate, 200 μM L-ascorbic acid, 10 μM CODD or NODD peptide and 20 μM 2-oxoglutarate) and 25 μl was dispensed across each 384-well assay plate. tPHD2181-426 was allowed to equilibrate with compounds for 15 minutes; the reaction was then initiated by addition of 25 μl of substrate.2 Enzyme reactions were allowed to proceed for 15 minutes and the reaction terminated by addition of 10% (v/v) formic acid (5 μl). Assay plates were then transferred to a RapidFire RF360 sampling robot (Agilent) connected to an Agilent 6530 quadrupole-time-of-flight (Q-TOF) mass spectrometer. Assay samples were aspirated under vacuum and loaded onto a C4 solid phase extraction (SPE) cartridge. After loading, the C4 SPE cartridge was washed with 0.1 % (v/v) formic acid in water to remove non-volatile buffer salts.
(§8) The peptide was then eluted from the SPE with 85% acetonitrile, 15% water containing 0.1% (v/v) formic acid into the mass spectrometer. Peptide charge states were monitored in the positive ion mode. Ion chromatogram data were extracted for […]
(§9) the +2 charge state and peak area data integrated using RapidFire Integrator software (Agilent). The % conversion of the CODD peptide substrate to the +16 hydroxylated peptide was calculated using the equation: […]
(§10) data were determined from non-linear regression plots using GraphPad prism 6.0.
(§11) All data were normalized to a no enzyme control.2

The target of assay [2] is T2, tPHD2 (PHD2 181-426) with HIF-1α NODD (Homo sapiens, UniProt Q9GZT9).
T2 construct: catalytic domain of truncated PHD2 (tPHD2, residues 181–426); His6 (N, cleaved yes); made in house; host or cells: E. coli BL21 DE3
T2 sequence (Q9GZT9 181-426): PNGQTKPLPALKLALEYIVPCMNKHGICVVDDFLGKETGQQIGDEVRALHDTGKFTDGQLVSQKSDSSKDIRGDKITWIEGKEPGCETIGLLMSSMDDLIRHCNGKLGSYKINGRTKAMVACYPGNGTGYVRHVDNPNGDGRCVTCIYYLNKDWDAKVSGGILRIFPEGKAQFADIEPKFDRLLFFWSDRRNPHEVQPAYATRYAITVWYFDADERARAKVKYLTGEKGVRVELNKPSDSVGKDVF
The assay is described as follows: RapidFire-MS PHD2 hydroxylation assay, HIF-1α NODD peptide substrate. The procedure:
as §1, §2, §3, §4, §5, §6, §7, §8, §9, §10, §11

In the next assay the target is PHD3 (Homo sapiens, UniProt Q9H6Z9). Description: PHD3 catalysed HIF-1α CODD hydroxylation, RapidFire mass spectrometry. The procedure:
as §1
(§12) We carried out initial studies on the selectivity of the spiro[4.5]decanone series.

The next assay concerns the target T3, KDM4A (Homo sapiens, UniProt O75164).
T3 sequence (O75164 1-1064): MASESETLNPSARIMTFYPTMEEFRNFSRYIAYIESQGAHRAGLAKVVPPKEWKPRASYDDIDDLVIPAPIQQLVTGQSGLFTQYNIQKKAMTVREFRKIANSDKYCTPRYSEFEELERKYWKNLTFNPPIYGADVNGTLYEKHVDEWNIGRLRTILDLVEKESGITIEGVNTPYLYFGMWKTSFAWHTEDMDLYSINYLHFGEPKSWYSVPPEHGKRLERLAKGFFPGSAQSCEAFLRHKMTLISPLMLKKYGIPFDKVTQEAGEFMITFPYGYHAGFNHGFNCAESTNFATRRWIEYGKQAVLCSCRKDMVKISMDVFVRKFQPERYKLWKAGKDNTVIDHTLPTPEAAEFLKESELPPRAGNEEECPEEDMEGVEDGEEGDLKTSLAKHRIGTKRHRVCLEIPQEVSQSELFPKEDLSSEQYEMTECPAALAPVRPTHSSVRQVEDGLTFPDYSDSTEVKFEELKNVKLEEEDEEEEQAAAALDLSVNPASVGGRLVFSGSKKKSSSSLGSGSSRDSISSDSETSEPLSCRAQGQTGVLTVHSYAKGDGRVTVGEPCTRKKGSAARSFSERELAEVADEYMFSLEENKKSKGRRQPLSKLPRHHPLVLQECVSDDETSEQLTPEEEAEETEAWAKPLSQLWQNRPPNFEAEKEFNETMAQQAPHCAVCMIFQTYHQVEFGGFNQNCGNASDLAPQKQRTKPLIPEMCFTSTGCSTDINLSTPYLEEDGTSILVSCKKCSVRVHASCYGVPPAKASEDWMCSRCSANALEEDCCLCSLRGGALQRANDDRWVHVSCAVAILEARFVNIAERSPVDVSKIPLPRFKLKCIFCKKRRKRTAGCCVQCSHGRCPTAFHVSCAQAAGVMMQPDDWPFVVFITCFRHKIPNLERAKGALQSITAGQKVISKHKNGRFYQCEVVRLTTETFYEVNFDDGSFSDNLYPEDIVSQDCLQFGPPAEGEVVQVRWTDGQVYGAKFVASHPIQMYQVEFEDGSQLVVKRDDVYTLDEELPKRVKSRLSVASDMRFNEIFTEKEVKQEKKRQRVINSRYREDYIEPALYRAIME
Description: KDM4A selectivity assay with H3(1-15) K9Me3, RapidFire-MS. To be noted: isolated KDM4A, Table S2.
Description: as §12, §2
(§13) Table S2: Studies on the selectivity of spiro[4.5]decanone containing inhibitors.
(§14) Compounds were screened against FIH with the HIF-1α CAD peptide D788 - L822 and
(§15) KDM4A with H3(1 - 15) K9Me3. Both assays employed the RapidFire-MS sampling
(§16) machine. See Experimental Methods for details. 2 […]

Assay [3] concerns the target factor inhibiting HIF (FIH) (Homo sapiens, UniProt Q9NWT6). The assay is described as follows: FIH selectivity assay with HIF-1α CAD peptide D788-L822, RapidFire-MS. To be noted: isolated FIH, Table S2.
Description: as §12, §2, §13, §14, §15, §16

The mark [4] stands for this setting: tPHD2 181-426, HIF-1α CODD peptide, RapidFire MS, standard error of the mean (n = 3), read-out: PHD2 with HIF1-α CODD IC50.
Where [5] appears, read: tPHD2 181-426, HIF-1α NODD peptide, RapidFire MS, standard error of the mean (n = 3), read-out: PHD2 with HIF1-α NODD IC50.

Where two headings read alike, the source gives them in different places.

T1 sequence (Q9GZT9 181-426): as the sequence (Q9GZT9 181-426) above
PHD3, sequence (Q9H6Z9 whole entry): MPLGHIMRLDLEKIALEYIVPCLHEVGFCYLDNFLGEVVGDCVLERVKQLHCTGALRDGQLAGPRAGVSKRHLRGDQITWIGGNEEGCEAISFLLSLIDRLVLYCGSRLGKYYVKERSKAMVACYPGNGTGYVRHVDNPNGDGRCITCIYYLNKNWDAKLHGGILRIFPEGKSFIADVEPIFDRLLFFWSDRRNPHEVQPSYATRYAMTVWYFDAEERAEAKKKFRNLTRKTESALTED
factor inhibiting HIF (FIH), sequence (Q9NWT6 whole entry): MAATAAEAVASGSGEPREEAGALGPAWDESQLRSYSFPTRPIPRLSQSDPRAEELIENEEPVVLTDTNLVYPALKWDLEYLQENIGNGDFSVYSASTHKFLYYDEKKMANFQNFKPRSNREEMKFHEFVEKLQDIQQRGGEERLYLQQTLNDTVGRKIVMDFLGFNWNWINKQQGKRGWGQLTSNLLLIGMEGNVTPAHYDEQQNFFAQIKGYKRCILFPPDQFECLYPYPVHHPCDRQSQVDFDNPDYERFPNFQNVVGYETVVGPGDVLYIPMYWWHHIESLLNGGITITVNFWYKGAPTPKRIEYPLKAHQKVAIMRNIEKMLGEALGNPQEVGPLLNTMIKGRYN

As for `Cn1ccnc1CN1CCC2(CC1)NC(=O)N(c1ccc(-c3ccccc3)cc1)C2=O` [Compound 24], the concentration for half-maximal inhibition (IC50) in assay [1] (setting [4]) stood at 151 ± 35 nM; in assay [2] (setting [5]) it was 63 ± 16 nM; on PHD3 it was 219 ± 25 nM.

`Cc1cccnc1CN1CCC2(CC1)C(=O)N(c1ccc(-c3ccccc3)cc1)C(=O)N2c1ncccn1` [Compound 11]: the “KDM4A inhibition (in words)” value on KDM4A is on record as “weak”.

Take `COc1cccc(CN2CCC3(CC2)C(=O)N(c2ccc(-c4ccccc4)cc2)C(=O)N3c2ncccn2)n1` [Compound 16]: the IC50 in assay [1] (setting [4]) came out at 1210 ± 226 nM; in assay [2] (setting [5]), 905 ± 417 nM.

Regarding `O=C1N(c2ccc(-c3ccccc3)cc2)C(=O)C2(CCN(Cc3cccs3)CC2)N1c1ncccn1` [Compound 12], the IC50 in assay [1] (setting [4]) and in assay [2] (setting [5]) was over 25000 nM in each case. Further, the “tPHD2 inhibition (in words)” value in assay [1] is “inactive”.

Turning to `Cc1cccnc1CN1CCC2(CC1)C(=O)N(c1ccc(-c3ccccc3)cc1)C(=O)N2c1cc(C(=O)O)ccn1` [Compound 27], the IC50 in assay [1] (setting [4]) amounted to 380 ± 64 nM; in assay [2] (setting [5]) it was 94 ± 32 nM.

As to `O=C1N(c2ccc(-c3ccccc3)cc2)C(=O)C2(CCN(Cc3ncc[nH]3)CC2)N1c1ncccn1` [Compound 15], the figures for the IC50 in assay [1] (setting [4]) and in assay [2] (setting [5]) were 215 ± 19 nM and 70 ± 21 nM, respectively. Moreover, in assay [1], the “tPHD2 inhibition (in words)” value was “maintained potent inhibition”.

Turning to `COc1ccnc(N2C(=O)N(c3ccc(-c4ccccc4)cc3)C(=O)C23CCN(Cc2ncccc2C)CC3)n1` [Compound 26], the concentration for half-maximal inhibition (IC50) in assay [1] (setting [4]) was 289 ± 11 nM; in assay [2] (setting [5]), 55 ± 15 nM. The “FIH inhibition (in words)” value in assay [3] is “weak”.

As for `Cn1ccnc1CN1CCC2(CC1)C(=O)N(c1ccc(-c3ccccc3)cc1)C(=O)N2c1ncccn1` [Compound 14], the results for the concentration for half-maximal inhibition (IC50) in assay [1] and in assay [2] were 143 ± 97 nM and 49 ± 5 nM, respectively. For the same molecule, the “tPHD2 inhibition (in words)” value in assay [1] is “maintained potent inhibition”. For the same molecule, on KDM4A, the “KDM4A inhibition (in words)” value is recorded as “weak”.

Regarding `O=C1N(c2ccc(-c3ccccc3)cc2)C(=O)C2(CCNCC2)N1c1ncccn1` [Compound 10], the 50% inhibitory concentration (IC50) in assay [1] (setting [4]) and in assay [2] (setting [5]) was over 25000 nM throughout.

For `Cc1cccnc1CN1CCC2(CC1)NC(=O)N(c1ccc(-c3ccccc3)cc1)C2=O` [Compound 23], the IC50 at PHD3 worked out at 1050 ± 40 nM.

For the molecule `O=C1N(c2ccc(-c3ccccc3)cc2)C(=O)C2(CCN(Cc3ccccc3O)CC2)N1c1ncccn1` [Compound 13], in assay [1], the IC50 was over 25000 nM and the “tPHD2 inhibition (in words)” value was “inactive”. This molecule also showed a 50% inhibitory concentration (IC50) in assay [2] of over 25000 nM.
